Measured values taken from ChEMBL document CHEMBL3407392, “Design, syntheses, structure-activity relationships and docking studies of coumarin derivatives as novel selective ligands for the CB2 receptor” (Eur J Med Chem, 2015).

How the values were obtained:
[1] = biological target: T1, Cannabinoid receptor 1 (Homo sapiens, UniProt P21554); format: functional, cell-based, CHO
[2] = biological target: T2, Cannabinoid receptor 2 (Homo sapiens, UniProt P34972); test: Antagonist activity at CB2 receptor (unknown origin) expressed in CHO cells up to 10 uM incubated for 10 mins prior to CP55940 addition by calcium mobilization assay; format: functional, cell-based
T2 sequence (P34972 whole entry): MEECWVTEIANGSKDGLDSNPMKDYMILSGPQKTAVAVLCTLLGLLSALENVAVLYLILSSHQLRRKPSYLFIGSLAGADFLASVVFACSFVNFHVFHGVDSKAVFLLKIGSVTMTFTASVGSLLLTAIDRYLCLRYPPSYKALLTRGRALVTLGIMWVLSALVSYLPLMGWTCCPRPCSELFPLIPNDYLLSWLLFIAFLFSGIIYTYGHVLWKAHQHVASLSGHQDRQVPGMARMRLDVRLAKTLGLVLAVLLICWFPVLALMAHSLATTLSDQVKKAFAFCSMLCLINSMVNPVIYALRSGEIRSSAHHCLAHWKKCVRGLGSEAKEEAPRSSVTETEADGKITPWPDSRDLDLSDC

[3] = species: Homo sapiens; test: Selectivity index, ratio of IC50 for CB1 receptor (unknown origin) to IC50 for CB2 receptor (unknown origin)
[4] = biological target: T2, Cannabinoid receptor 2; test: Binding affinity to CB2 receptor (unknown origin)
[5] = biological target: T1, Cannabinoid receptor 1; test: Agonist activity at CB1 receptor (unknown origin) expressed in CHO cells by calcium mobilization assay; format: functional, cell-based
[6] = biological target: T2, Cannabinoid receptor 2; test: Agonist activity at CB2 receptor (unknown origin) expressed in CHO cells by calcium mobilization assay; format: functional, cell-based
[7] = species: Homo sapiens; test: Selectivity index, ratio of EC50 for CB1 receptor (unknown origin) to EC50 for CB2 receptor (unknown origin)
[8] = biological target: T2, Cannabinoid receptor 2; test: Agonist activity at CB2 receptor (unknown origin) expressed in CHO cells at 10 uM by calcium mobilization assay relative to control; format: functional, cell-based

T1 sequence (P21554 whole entry): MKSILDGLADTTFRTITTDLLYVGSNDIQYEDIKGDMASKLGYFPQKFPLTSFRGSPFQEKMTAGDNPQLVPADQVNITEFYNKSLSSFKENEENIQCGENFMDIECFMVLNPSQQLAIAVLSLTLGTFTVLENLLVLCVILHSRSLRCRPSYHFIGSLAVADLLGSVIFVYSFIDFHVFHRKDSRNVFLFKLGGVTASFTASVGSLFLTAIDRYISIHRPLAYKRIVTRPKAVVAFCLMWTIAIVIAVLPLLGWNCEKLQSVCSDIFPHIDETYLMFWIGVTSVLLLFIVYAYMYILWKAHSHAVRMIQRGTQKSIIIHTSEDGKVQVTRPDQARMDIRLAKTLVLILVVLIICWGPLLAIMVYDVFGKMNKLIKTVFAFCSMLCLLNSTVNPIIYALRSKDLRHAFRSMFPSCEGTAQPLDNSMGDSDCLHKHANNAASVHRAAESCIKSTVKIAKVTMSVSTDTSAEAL

CCCCOc1c(OC)ccc2cc(C(=O)NCC3CC3)c(=O)oc12
IC50 [1]: > 10000 nM
IC50 [2]: 1180 nM
Ratio IC50 [3]: > 8.5

CCCCCOc1ccc(C(=O)NCCc2ccc(N)cc2)cc1SCCCCC
Ki [4]: 1.9 nM

CCCCOc1cccc2cc(C(=O)NC(CC)CC)c(=O)oc12
EC50 [5]: > 10000 nM
EC50 [6]: 130 nM
Ratio EC50 [7]: > 76.9

CCCCOc1c(OC)ccc2cc(C(=O)NCCc3ccccc3)c(=O)[nH]c12
Ki [4]: 0.33 nM

CCCCCOc1c(OC)ccc2c1CN(CCc1ccc(N)cc1)C2=O
Ki [4]: 14 nM

O=C(NC1CCCCC1)c1cc2cccc(OCc3ccccc3)c2oc1=O
EC50 [5]: > 10000 nM
Activity [8]: 33%

CCCCOc1c(OC)ccc2cc(C(=O)NC(C)C(C)C)c(=O)oc12 (stereo not drawn)
IC50 [1]: > 10000 nM
IC50 [2]: 28 nM
Ratio IC50 [3]: > 357

CCCCOc1cccc2cc(C(=O)NN3CCOCC3)c(=O)oc12
EC50 [5]: > 10000 nM
EC50 [6]: > 10000 nM

CCCCCSc1cc(/C=C/C(=O)NCCc2ccc(O)cc2)ccc1OC
Ki [4]: 1.1 nM

CCCCCCOc1cc(Br)cc2cc(C(=O)NC3CCCCC3)c(=O)oc12
IC50 [1]: > 10000 nM
IC50 [2]: > 10000 nM

CCCCCOc1cccc2cc(C(=O)NC3CCCCC3)c(=O)oc12
EC50 [5]: > 10000 nM
EC50 [6]: 245 nM
Ratio EC50 [7]: > 40.8

CCCCCOc1cc(C(=O)NCCc2ccc(O)cc2)ccc1OC
Ki [4]: 2.5 nM

CCCOc1c(OC)ccc2cc(C(=O)NC3CCCCC3)c(=O)oc12
IC50 [1]: > 10000 nM
IC50 [2]: 807 nM
Ratio IC50 [3]: > 12.4

CCCCOc1cccc2cc(C(=O)N3CCCCC3)c(=O)oc12
EC50 [5]: > 10000 nM
EC50 [6]: > 10000 nM

CCCCCOc1c(OC)ccc2c1CCN(CCc1ccc(O)cc1)C2=O
Ki [4]: 1.8 nM

CCCCOc1c(OC)ccc2cc(C(=O)NC(C)CCC)c(=O)oc12 (stereo not drawn)
IC50 [1]: > 10000 nM
IC50 [2]: 19 nM
Ratio IC50 [3]: > 526

CCCCOc1cccc2cc(C(=O)NC34CC5CC(CC(C5)C3)C4)c(=O)oc12
EC50 [5]: > 10000 nM
EC50 [6]: > 10000 nM

CCCCOc1cccc2cc(C(=O)NCc3ccccc3)c(=O)oc12
EC50 [5]: > 10000 nM
EC50 [6]: > 10000 nM

CCCCCOc1c(OC)ccc2cc(C(=O)NCc3ccc4c(c3)OCO4)c(=O)oc12
IC50 [1]: > 10000 nM
Ki [4]: 0.087 nM
IC50 [2]: 644 nM
Ratio IC50 [3]: > 15.5

CCCCOc1cc(Br)cc2cc(C(=O)NC3CC3)c(=O)oc12
IC50 [1]: > 10000 nM
IC50 [2]: > 10000 nM

CCCCCOc1c(OC)ccc2c(=O)n(CCc3ccncc3)ccc12
Ki [4]: 8.4 nM

CCCCCOc1c(OC)ccc2c1C(=O)N(CCc1ccc(O)cc1)C2=O
Ki [4]: 7.3 nM

O=C(NC1CCCCC1)c1cc2cccc(OCC3CC3)c2oc1=O
EC50 [5]: > 10000 nM
Activity [8]: 42%

CCOc1cccc2cc(C(=O)NC3CCCCC3)c(=O)oc12
EC50 [5]: > 10000 nM
EC50 [6]: > 10000 nM

CCCCOc1cc(Br)cc2cc(C(=O)NC3CCCCC3)c(=O)oc12
IC50 [1]: > 10000 nM
IC50 [2]: 90 nM
Ratio IC50 [3]: > 111

CCCCOc1cccc2cc(C(=O)NC(C)(C)C)c(=O)oc12
EC50 [5]: > 10000 nM
EC50 [6]: 972 nM
Ratio EC50 [7]: > 10.3

CCCCOc1cccc2cc(C(=O)NC3CC3)c(=O)oc12
EC50 [5]: > 10000 nM
Activity [8]: 34%

CCCCCOc1cc(/C=C/C(=O)NCCc2ccncc2)ccc1OC
Ki [4]: 44 nM

CCCCCOc1cc(Br)cc2cc(C(=O)NC3CCCCC3)c(=O)oc12
IC50 [1]: > 10000 nM
IC50 [2]: 2190 nM
Ratio IC50 [3]: 4.6

CCCCOc1cccc2cc(C(=O)NC3CCCC3)c(=O)oc12
EC50 [5]: > 10000 nM
EC50 [6]: 793 nM
Ratio EC50 [7]: > 12.6

CCCCCOc1cc(/C=C/C(=O)NCCc2ccc(O)cc2)ccc1OC
Ki [4]: 4.8 nM

CCCCCOc1c(OC)ccc2c1CN(CCc1ccc(O)cc1)C2=O
Ki [4]: 11 nM

CCCCCOc1ccc(C(=O)NCCc2ccc(O)cc2)cc1OCCCCC
Ki [4]: 0.44 nM

CCCCCOc1cc(C(=O)NC2CCc3cc(O)c(O)cc3C2)ccc1OC (stereo not drawn)
Ki [4]: 18 nM

CCCCOc1cccc2cc(C(=O)NC(C)CCC)c(=O)oc12 (stereo not drawn)
EC50 [5]: > 10000 nM
EC50 [6]: 321 nM
Ratio EC50 [7]: > 31.2

CCCCOc1cc(Br)cc2cc(C(=O)NN3CCOCC3)c(=O)oc12
IC50 [1]: > 10000 nM
IC50 [2]: > 10000 nM

CCCCCOc1c(OC)ccc2cc(C(=O)NC3CCCCC3)c(=O)oc12
IC50 [1]: > 10000 nM
IC50 [2]: 61 nM
Ratio IC50 [3]: > 164

CCCOc1cc(Br)cc2cc(C(=O)NC3CCCCC3)c(=O)oc12
IC50 [1]: > 10000 nM
IC50 [2]: > 10000 nM

CCCCOc1c(OC)ccc2cc(C(=O)NC(CC)CC)c(=O)oc12
IC50 [1]: > 10000 nM
IC50 [2]: 20 nM
Ratio IC50 [3]: > 500

CCCCCNc1c(OC)ccc2c1CN(CCc1ccc(O)cc1)C2=O
Ki [4]: 0.088 nM

O=C(NC1CCCCC1)c1cc2cc(Br)cc(OCC3CC3)c2oc1=O
IC50 [1]: > 10000 nM
IC50 [2]: 746 nM
Ratio IC50 [3]: > 13.4

CCCCOc1cccc2cc(C(=O)NN3CCCCC3)c(=O)oc12
EC50 [5]: > 10000 nM
Activity [8]: 37%

CCCCOc1cccc2cc(C(=O)NCC3CC3)c(=O)oc12
EC50 [5]: > 10000 nM
EC50 [6]: > 10000 nM

CCCCNC(=O)c1cc2cccc(OCCCC)c2oc1=O
EC50 [5]: > 10000 nM
EC50 [6]: > 10000 nM

CCCCCCOc1cccc2cc(C(=O)NC3CCCCC3)c(=O)oc12
EC50 [5]: > 10000 nM
Activity [8]: 36%

CCCCOc1cccc2cc(C(=O)NC3CCCCC3)c(=O)oc12
EC50 [5]: > 10000 nM
EC50 [6]: 144 nM
Ratio EC50 [7]: > 69.4

CCCOc1cccc2cc(C(=O)NC3CCCCC3)c(=O)oc12
EC50 [5]: > 10000 nM
EC50 [6]: > 10000 nM

CCCCOc1c(OC)ccc2cc(C(=O)NC3CCCCC3)c(=O)oc12
IC50 [1]: > 10000 nM
IC50 [2]: 22 nM
Ratio IC50 [3]: > 454

CCCCOc1c(OC)ccc2cc(C(=O)NC(C)C)c(=O)oc12
IC50 [1]: > 10000 nM
IC50 [2]: 162 nM
Ratio IC50 [3]: > 61.7

CCCCCOc1cc(C(=O)NCCc2ccncc2)ccc1OC
Ki [4]: 73 nM

CCCCOc1cccc2cc(C(=O)NC(C)C)c(=O)oc12
EC50 [5]: > 10000 nM
EC50 [6]: 103 nM
Ratio EC50 [7]: > 97.1

CCCCCOc1ccc2c(c1OCCCCC)CN(CCc1ccc(N)cc1)C2=O
Ki [4]: 0.11 nM

CCCCOc1cccc2cc(C(=O)NC(C)C(C)C)c(=O)oc12 (stereo not drawn)
EC50 [5]: > 10000 nM
Activity [8]: 41%

CCCCOc1cc(Br)cc2cc(C(=O)NC(C)C)c(=O)oc12
IC50 [1]: > 10000 nM
IC50 [2]: > 10000 nM

CCCCCOc1c(OC)ccc2cc(C(=O)N3CCCc4ccccc4C3)c(=O)[nH]c12
Ki [4]: 118 nM

CCCCCOc1c(OC)ccc2cc(C(=O)N3CCCC(C(=O)OCC)C3)c(=O)[nH]c12 (stereo not drawn)
Ki [4]: 100 nM

CCCCCOc1c(OC)ccc2c(=O)n(CCc3ccc(O)cc3)ccc12
Ki [4]: 3.7 nM

O=C(NCC1CCOCC1)c1cnc(Nc2ccc(Cl)cc2Cl)nc1C(F)(F)F [GW842166X]
EC50 [5]: > 10000 nM
EC50 [6]: 431 nM
Ratio EC50 [7]: > 23.2
